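Step 1: Grow cells in 96-well plates. Step 2: Expose to compound for 48 hours at 5 concentrations. Step 3: Interpolate endpoints linearly; if unreached, use highest concentration. GI50: concentration for 50% inhibition of growth. Definition used: TGI = concentration required for complete inhibition of growth.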
Assays:
Experiment in all cases: NCI-60 cell line screen, 48 h
LOX IMVI melanoma = test system: LOX IMVI melanoma
SF-268 CNS = test system: SF-268 CNS
OVCAR-8 ovarian = test system: OVCAR-8 ovarian
K-562 leukemia = test system: K-562 leukemia
UACC-257 melanoma = test system: UACC-257 melanoma
U251 CNS = test system: U251 CNS
SF-539 CNS = test system: SF-539 CNS
SK-OV-3 ovarian = test system: SK-OV-3 ovarian

Row | SMILES | TGI (LOX IMVI melanoma) [µM] | TGI (SF-268 CNS) [µM] | TGI (OVCAR-8 ovarian) [µM] | TGI (K-562 leukemia) [µM] | TGI (UACC-257 melanoma) [µM] | TGI (U251 CNS) [µM] | TGI (SF-539 CNS) [µM] | GI50 (LOX IMVI melanoma) [µM] | GI50 (SF-268 CNS) [µM] | GI50 (OVCAR-8 ovarian) [µM] | GI50 (K-562 leukemia) [µM] | GI50 (UACC-257 melanoma) [µM] | GI50 (SK-OV-3 ovarian) [µM] | TGI (SK-OV-3 ovarian) [µM] | GI50 (U251 CNS) [µM] | GI50 (SF-539 CNS) [µM]
1 | C=C(C)C1CCC2=CC(CC3(C)OC3C3=CC(C(=O)OC)=C(C1)O3)OC2=O (stereo not given) | > 100 | > 100 | > 100 | > 100 | > 100 | > 100 | > 100 | – | – | – | – | – | – | – | – | –
2 | C[C@@]1(C(=O)O)CCC[C@]2(C)C1CC[C@]13C[C@@](O)(CO)[C@](O)(CC[C@]12O)C3 (stereo not given in full) | > 100 | > 100 | > 100 | > 100 | > 100 | > 100 | > 100 | > 100 | > 100 | > 100 | > 100 | > 100 | > 100 | > 100 | > 100 | > 100
3 | CCCCSc1nc(N)c2cn[nH]c2n1 | > 88.6 | > 59.4 | > 60.4 | > 100 | 35 | > 64.1 | 39.1 | 29.9 | 22.2 | 23.2 | 29.7 | 19.4 | 37 | > 92.3 | 28.1 | 18.3
4 | COc1c(-c2ccc3c(c2)OCO3)oc2cc(O)cc(O)c2c1=O | > 100 | > 100 | > 100 | > 100 | > 100 | > 100 | > 100 | – | – | – | – | – | – | 85.4 | – | –
5 | O=c1cc(-c2ccccc2)oc2cc(OCCCCCN3CCOCC3)cc(O)c12 | > 100 | > 100 | > 100 | > 100 | > 100 | 45.5 | > 100 | > 100 | 75.9 | 68.2 | 29 | > 100 | 16.4 | 44.1 | 18.6 | > 100
6 | Cc1c(NC(=O)Nc2c(Cl)cccc2Cl)c(=O)n(-c2ccccc2)n1C | > 100 | > 100 | > 100 | > 100 | > 100 | > 100 | > 100 | – | – | – | – | – | – | > 100 | – | –
7 | Cc1ccc(-c2c3c(nn2-c2ccc(S(=O)(=O)NC(=O)NC4CCCCC4)cc2)-c2ccccc2C3)cc1 | 3.73 | 28.6 | 70.7 | 13.5 | 49.6 | 26.9 | 21.9 | 1.82 | 11.5 | 26.2 | 3.1 | 23.7 | 18.9 | 42.4 | 12.3 | 9.48
8 | CSc1ccc(NC(=O)Nc2cc(C)ccn2)cc1 | > 100 | > 100 | > 100 | > 100 | > 100 | > 100 | > 100 | – | – | – | – | – | – | > 100 | – | –
9 | Cc1c(Cl)cccc1NC(=O)c1sc2nc3c(cc2c1N)C(=O)CCC3 | > 100 | > 100 | > 55.6 | > 100 | – | > 37.4 | 0.19 | 0.0782 | 0.206 | 0.272 | 0.0371 | – | 0.0597 | > 89.7 | 0.0836 | 0.0353
10 | Cc1ccc(N=Nc2c(O)ccc3n[nH]nc23)cc1 | > 100 | 77.5 | 75 | > 100 | 39.5 | > 100 | > 100 | 12.7 | 14.9 | 16.5 | 9.06 | 5.09 | 10.3 | > 100 | 11.4 | 15.8
11 | Cc1cc(-c2nc3n(c2/C=N/N=C(N)N)CCS3)c(C)s1 | 29.1 | 35.5 | 63.4 | 42.4 | – | 32.1 | 31.3 | 15 | 19.1 | 32.6 | 19.1 | – | 19.8 | 36.9 | 15.6 | 16.8
12 | COc1cc2c3c(n([C@@H]4CCOC4)c(=O)c2cc1OC)-c1cc2c(cc1C3=O)OCO2 | – | > 100 | > 100 | > 100 | – | – | 0.0208 | – | < 0.01 | 0.0132 | 0.0166 | – | – | – | – | < 0.01
13 | CCn1cc(C(=O)N/N=C/c2cccs2)c(=O)c2cc(F)c(N3CCNC(C)C3)c(F)c21 (stereo not given) | – | 3.44 | – | – | 3.43 | 3.06 | 3.07 | – | 1.73 | – | – | 1.8 | 1.79 | 3.38 | 1.67 | 1.62
14 | O=C(N=Nc1c(Cl)c(O)c2ccccc2c1O)C(=O)Nc1cccc(C(F)(F)F)c1 | 5.09 | 13 | 13.6 | 25.6 | – | 10.9 | 14.4 | 1.97 | 3.37 | 3.39 | 3.94 | – | 12.9 | 26.7 | 3.05 | 3.51
15 | C=CCC(N[C@H](CO)c1ccccc1)c1ccccn1 (stereo not given in full) | > 100 | – | > 100 | > 100 | > 100 | > 100 | > 100 | > 100 | – | > 100 | > 100 | > 100 | > 100 | > 100 | > 100 | > 100
